The target of the first assay is T1, Somatostatin receptor type 3 (Mus musculus, UniProt P30935). Kind of assay: Antagonist activity at mouse SSTR3 expressed in CHO cells assessed as cAMP level by fluorescence analysis. It is filed as functional, cell-based.
T1 sequence (P30935 whole entry): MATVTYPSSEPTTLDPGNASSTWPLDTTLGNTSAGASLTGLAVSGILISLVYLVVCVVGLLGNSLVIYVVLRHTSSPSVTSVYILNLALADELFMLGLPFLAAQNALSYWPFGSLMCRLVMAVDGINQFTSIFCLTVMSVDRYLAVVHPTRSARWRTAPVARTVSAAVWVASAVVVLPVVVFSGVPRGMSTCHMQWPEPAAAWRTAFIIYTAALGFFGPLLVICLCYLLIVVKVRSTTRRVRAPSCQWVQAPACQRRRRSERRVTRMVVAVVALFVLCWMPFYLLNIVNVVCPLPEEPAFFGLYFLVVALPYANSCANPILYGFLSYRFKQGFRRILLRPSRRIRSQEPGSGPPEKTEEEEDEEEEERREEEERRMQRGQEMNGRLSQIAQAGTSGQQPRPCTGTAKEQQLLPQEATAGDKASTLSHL
Conditions: not given
As a reminder, the IC50 is the concentration needed to halve the response being measured. For the compound `CCOC(=O)c1ccnc([C@@]2(c3cnn(C)c3)N[C@@H](c3nc(-c4ccc(F)cc4)c[nH]3)Cc3c2[nH]c2ccccc32)c1`, the IC50 amounted to 14.7 nM.
Take `CCOC(=O)c1cncc([C@]2(c3cnn(C)c3)N[C@@H](c3nc(-c4ccc(F)cc4)c[nH]3)Cc3c2[nH]c2ccccc32)c1`: the IC50 is 0.35 nM.
As for `CCOC(=O)c1cncc([C@@]2(c3cnn(C)c3)N[C@@H](c3nc(-c4ccc(F)cc4)c[nH]3)Cc3c2[nH]c2ccccc32)c1`, the IC50 came out at 8.37 nM.
Regarding `Cn1cc([C@@]2(c3cncc(C(=O)O)c3)N[C@@H](c3nc(-c4ccc(F)cc4)c[nH]3)Cc3c2[nH]c2ccccc32)cn1`, the IC50 stood at 0.16 nM.
Same read-out and setting: with `Cn1cc([C@]2(c3cncc(C(=O)O)c3)N[C@@H](c3nc(-c4ccc(F)cc4)c[nH]3)Cc3c2[nH]c2ccccc32)cn1` the figure was 2.9 nM; with `CCOC(=O)c1ccnc(C2(c3cnn(C)c3)N[C@@H](c3nc(-c4ccc(F)cc4)c[nH]3)Cc3c2[nH]c2ccccc32)c1` (single isomer, unassigned), 0.36 nM.

Another assay deals with Somatostatin receptor type 3 (Mus musculus) (UniProt P30935). Kind of assay: Antagonist activity at mouse SSTR3 expressed in CHO cells assessed as cAMP level by fluorescence analysis relative to control. In kind it is functional, cell-based. Set-up: concentration or dose not given beside the values. Particulars: concentration not given here.
Somatostatin receptor type 3 (Mus musculus), sequence (P30935 whole entry): as above
One may read the inhibition as the relative decrease from the control value, in per cent. For the compound `CCOC(=O)c1ccnc([C@@]2(c3cnn(C)c3)N[C@@H](c3nc(-c4ccc(F)cc4)c[nH]3)Cc3c2[nH]c2ccccc32)c1`, the inhibition was found to be 85%.
For `CCOC(=O)c1cncc([C@]2(c3cnn(C)c3)N[C@@H](c3nc(-c4ccc(F)cc4)c[nH]3)Cc3c2[nH]c2ccccc32)c1`, the inhibition came to 99%.
Consider `CCOC(=O)c1cncc([C@@]2(c3cnn(C)c3)N[C@@H](c3nc(-c4ccc(F)cc4)c[nH]3)Cc3c2[nH]c2ccccc32)c1`, for which the inhibition came to 107%.
Turning to `Cn1cc([C@@]2(c3cncc(C(=O)O)c3)N[C@@H](c3nc(-c4ccc(F)cc4)c[nH]3)Cc3c2[nH]c2ccccc32)cn1`, the inhibition came out at 67%.
Still for that read-out and setting: then `Cn1cc([C@]2(c3cncc(C(=O)O)c3)N[C@@H](c3nc(-c4ccc(F)cc4)c[nH]3)Cc3c2[nH]c2ccccc32)cn1`, with 80%; and `CCOC(=O)c1ccnc(C2(c3cnn(C)c3)N[C@@H](c3nc(-c4ccc(F)cc4)c[nH]3)Cc3c2[nH]c2ccccc32)c1` (single isomer, unassigned), with 91%.

For the next assay, the target named is T2, Somatostatin receptor type 3 (Homo sapiens, UniProt P32745).
T2 sequence (P32745 whole entry): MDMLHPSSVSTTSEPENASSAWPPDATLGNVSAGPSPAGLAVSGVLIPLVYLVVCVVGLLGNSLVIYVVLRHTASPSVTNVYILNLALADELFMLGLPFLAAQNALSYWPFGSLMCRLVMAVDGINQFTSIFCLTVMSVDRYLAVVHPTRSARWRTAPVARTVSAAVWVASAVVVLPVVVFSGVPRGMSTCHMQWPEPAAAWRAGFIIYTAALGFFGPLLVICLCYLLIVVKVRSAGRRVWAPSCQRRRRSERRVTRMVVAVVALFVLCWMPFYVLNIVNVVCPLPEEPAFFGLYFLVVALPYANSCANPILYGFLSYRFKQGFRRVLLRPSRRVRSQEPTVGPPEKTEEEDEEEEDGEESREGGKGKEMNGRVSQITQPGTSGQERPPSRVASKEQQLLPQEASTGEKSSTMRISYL
Assay: not given
Conditions: not given
Turning to `CCOC(=O)c1ccnc([C@@]2(c3cnn(C)c3)N[C@@H](c3nc(-c4ccc(F)cc4)c[nH]3)Cc3c2[nH]c2ccccc32)c1`, the IC50 turned out to be 47.1 nM.
`CCOC(=O)c1cncc([C@]2(c3cnn(C)c3)N[C@@H](c3nc(-c4ccc(F)cc4)c[nH]3)Cc3c2[nH]c2ccccc32)c1` registered an IC50 of 0.15 nM.
The compound `CCOC(=O)c1cncc([C@@]2(c3cnn(C)c3)N[C@@H](c3nc(-c4ccc(F)cc4)c[nH]3)Cc3c2[nH]c2ccccc32)c1` came in with an IC50 of 24 nM.
Still for that read-out and setting: then `Cn1cc([C@@]2(c3cncc(C(=O)O)c3)N[C@@H](c3nc(-c4ccc(F)cc4)c[nH]3)Cc3c2[nH]c2ccccc32)cn1`, with 0.52 nM.
The compound `Cn1cc([C@]2(c3cncc(C(=O)O)c3)N[C@@H](c3nc(-c4ccc(F)cc4)c[nH]3)Cc3c2[nH]c2ccccc32)cn1` returned an IC50 of 6.12 nM.
Compound `CCOC(=O)c1ccnc(C2(c3cnn(C)c3)N[C@@H](c3nc(-c4ccc(F)cc4)c[nH]3)Cc3c2[nH]c2ccccc32)c1` (single isomer, unassigned) registered an IC50 of 0.78 nM.

The next assay deals with T1, Somatostatin receptor type 3.
Assay: not given
It is filed as cell-based, CHO.
Conditions: not given
Compound `CCOC(=O)c1ccnc(C2(c3cnn(C)c3)N[C@@H](c3nc(-c4ccc(F)cc4)c[nH]3)Cc3c2[nH]c2ccccc32)c1` (single isomer, unassigned) came in with an IC50 of 0.41 nM.

The target in the next assay is Voltage-gated inwardly rectifying potassium channel KCNH2 (Homo sapiens, UniProt Q12809).
Voltage-gated inwardly rectifying potassium channel KCNH2, sequence (Q12809 whole entry): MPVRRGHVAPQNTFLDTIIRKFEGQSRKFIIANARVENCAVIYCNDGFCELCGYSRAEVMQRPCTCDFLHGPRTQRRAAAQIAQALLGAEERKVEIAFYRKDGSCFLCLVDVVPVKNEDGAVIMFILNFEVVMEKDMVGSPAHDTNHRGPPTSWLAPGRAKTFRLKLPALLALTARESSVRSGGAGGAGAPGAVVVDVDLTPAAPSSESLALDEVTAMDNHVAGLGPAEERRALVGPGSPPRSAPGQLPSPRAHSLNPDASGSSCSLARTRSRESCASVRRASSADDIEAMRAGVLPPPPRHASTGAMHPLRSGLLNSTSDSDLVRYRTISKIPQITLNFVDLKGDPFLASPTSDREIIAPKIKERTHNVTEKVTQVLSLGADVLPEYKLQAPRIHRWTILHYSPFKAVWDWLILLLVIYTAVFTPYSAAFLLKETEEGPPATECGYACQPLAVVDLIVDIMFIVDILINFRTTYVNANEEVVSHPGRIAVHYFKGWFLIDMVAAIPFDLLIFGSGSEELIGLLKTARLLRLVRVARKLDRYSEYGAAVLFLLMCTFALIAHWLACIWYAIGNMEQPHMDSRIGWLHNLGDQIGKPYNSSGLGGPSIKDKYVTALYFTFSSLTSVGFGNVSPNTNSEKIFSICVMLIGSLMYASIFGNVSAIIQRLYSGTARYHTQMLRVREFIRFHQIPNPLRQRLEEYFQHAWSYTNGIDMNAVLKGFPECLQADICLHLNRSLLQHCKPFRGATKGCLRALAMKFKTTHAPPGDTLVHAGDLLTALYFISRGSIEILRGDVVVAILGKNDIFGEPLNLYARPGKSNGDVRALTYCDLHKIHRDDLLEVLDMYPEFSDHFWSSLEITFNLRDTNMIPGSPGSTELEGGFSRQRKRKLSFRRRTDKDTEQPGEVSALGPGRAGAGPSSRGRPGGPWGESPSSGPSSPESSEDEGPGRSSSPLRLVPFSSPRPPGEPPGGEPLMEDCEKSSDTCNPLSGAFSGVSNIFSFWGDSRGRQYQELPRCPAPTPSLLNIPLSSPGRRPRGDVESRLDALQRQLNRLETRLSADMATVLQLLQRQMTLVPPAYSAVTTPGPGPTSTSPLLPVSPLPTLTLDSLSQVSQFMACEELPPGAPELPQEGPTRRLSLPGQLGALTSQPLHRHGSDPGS
Assay: not given
Conditions: not given
`CCOC(=O)c1cncc([C@]2(c3cnn(C)c3)N[C@@H](c3nc(-c4ccc(F)cc4)c[nH]3)Cc3c2[nH]c2ccccc32)c1` gave an IC50 of 2260 nM.
As for `CCOC(=O)c1cncc([C@@]2(c3cnn(C)c3)N[C@@H](c3nc(-c4ccc(F)cc4)c[nH]3)Cc3c2[nH]c2ccccc32)c1`, the IC50 stood at 2520 nM.

Another assay concerns the target T2, Somatostatin receptor type 3. Kind of assay: biochemical.
Conditions: not given
Regarding `CCOC(=O)c1ccnc([C@@]2(c3cnn(C)c3)N[C@@H](c3nc(-c4ccc(F)cc4)c[nH]3)Cc3c2[nH]c2ccccc32)c1`, 4.87 nM corresponded to half-maximal inhibition (IC50).
Turning to `CCOC(=O)c1cncc([C@]2(c3cnn(C)c3)N[C@@H](c3nc(-c4ccc(F)cc4)c[nH]3)Cc3c2[nH]c2ccccc32)c1`, it took 0.78 nM to reach half-maximal inhibition (IC50).
The compound `CCOC(=O)c1cncc([C@@]2(c3cnn(C)c3)N[C@@H](c3nc(-c4ccc(F)cc4)c[nH]3)Cc3c2[nH]c2ccccc32)c1` gave an IC50 of 3.36 nM.
For the compound `Cn1cc([C@@]2(c3cncc(C(=O)O)c3)N[C@@H](c3nc(-c4ccc(F)cc4)c[nH]3)Cc3c2[nH]c2ccccc32)cn1`, the IC50 was determined as 1.22 nM.
As to `Cn1cc([C@]2(c3cncc(C(=O)O)c3)N[C@@H](c3nc(-c4ccc(F)cc4)c[nH]3)Cc3c2[nH]c2ccccc32)cn1`, the IC50 was 10.8 nM.
For `CCOC(=O)c1ccnc(C2(c3cnn(C)c3)N[C@@H](c3nc(-c4ccc(F)cc4)c[nH]3)Cc3c2[nH]c2ccccc32)c1` (single isomer, unassigned), the half-inhibitory concentration (IC50) was 0.64 nM.

These data come from ChEMBL document CHEMBL3352784, “Investigation of Cardiovascular Effects of Tetrahydro-β-carboline sstr3 antagonists” (ACS Med Chem Lett, 2014).
